Consider 2 molecules from PMC9254107, “The Toxoplasma glucan phosphatase TgLaforin utilizes a distinct functional mechanism that can be exploited by therapeutic inhibitors” (The Journal of Biological Chemistry, 2022).

Assay [1] addresses T1, TgLaforin (Toxoplasma gondii, UniProt S8F2K7).
T1 sequence (S8F2K7 1-523): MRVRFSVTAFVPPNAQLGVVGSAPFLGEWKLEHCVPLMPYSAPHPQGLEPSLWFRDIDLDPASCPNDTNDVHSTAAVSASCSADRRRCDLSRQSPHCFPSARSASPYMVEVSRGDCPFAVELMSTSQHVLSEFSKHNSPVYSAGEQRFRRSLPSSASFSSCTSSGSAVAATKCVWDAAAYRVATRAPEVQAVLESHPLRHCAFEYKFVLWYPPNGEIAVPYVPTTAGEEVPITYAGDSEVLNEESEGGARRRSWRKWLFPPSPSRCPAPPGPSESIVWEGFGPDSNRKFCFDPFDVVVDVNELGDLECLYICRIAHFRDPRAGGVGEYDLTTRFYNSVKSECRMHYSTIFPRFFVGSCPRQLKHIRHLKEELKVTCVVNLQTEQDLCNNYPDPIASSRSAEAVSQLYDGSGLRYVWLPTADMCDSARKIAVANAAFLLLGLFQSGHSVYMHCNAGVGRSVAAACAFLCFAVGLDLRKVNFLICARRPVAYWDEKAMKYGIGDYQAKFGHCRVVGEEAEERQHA
The experiment in a line: Radiolabeled (33P) starch phosphatase assay. Type of assay: biochemical. The note with it: 33P-labeled insoluble starch. The method, then: Position-dependent phosphate release from ^33P-labeled starch was performed as previously described ([36], [41], [42], [43]). The substrate for this assay was generated by phosphorylating phosphate-free Arabidopsis sex1-3 starch with β^33P-labeled ATP (Hartmann Analytic) at the C6 and C3 positions sequentially. The starch granules were phosphorylated at the C6 position using purified recombinant StGWD enzyme. Next, the granules were phosphorylated at the C3 position using purified recombinant AtPWD enzyme.
To determine the site-specificity of TgLaforin, TgLaforin (1.3 nM) was incubated separately with 0.6 mg both C6- and C3-^33P-labeled starch in phosphatase buffer (pH 6.5) containing 1 mg/ml bovine serum albumin in a final volume of 150 μl. […] The amount of phosphate released from each starch suspension was quantified by measuring counts per minute (CPM) of the supernatant on a 1900 TR liquid scintillation counter (Packard). […]
(§1) L319-M21-M49 stock solutions were prepared by resuspending the inhibitor in DMSO at a concentration of 20 mM. […] The efficacy of L319-M21-M49 against various phosphatases was determined using the assay conditions described above. […] All reported uncertainties in IC50 values were calculated and presented as standard deviation from the mean of at least three independent replicates, each consisting of three technical replicates. […]

Assay [2] has as its target T1, TgLaforin. In words: pNPP phosphatase assay.
Assay [3] addresses T1, TgLaforin. In words: Library screening at 10 μM. The class given is biochemical.
Assay [4] concerns the target VHR (Homo sapiens, UniProt P51452). The experiment in a line: Library screening at 10 μM. The note with it: read-out: inhibition of VHR.
Assay [5] deals with T1, TgLaforin. The experiment in a line: Malachite green phosphatase assay, phosphate release from solubilized potato amylopectin. The class given is biochemical. The protocol:
Release of phosphate from potato amylopectin was determined as done previously ([23], [24], [42], [93]) with the following modifications. Briefly, phosphate release was monitored using the PiColorLock Phosphate Detection Reagent (Novus Biologicals), a malachite green–based assay. For time course assays, 5 nM recombinant protein was incubated with 90 μg solubilized potato amylopectin (Sigma-Aldrich), supplied as a powder; solubilized at a stock concentration of 5 mg/ml using alcohol/alkaline method (also referred to as the “Roach method” in Ref. ([93])) in phosphatase buffer in a final volume of 80 μl at pH 6.5. […] After 5 min, 8 μl stabilizer solution (0.1 initial reaction volume) was added, and reaction was allowed to develop for 30 min at r.t. before the absorbance of each reaction was measured at 635 nm using a Synergy HTX Multi-Mode Reader (BioTek). Absorbance was converted to pmol Pi release using a Pi absorbance standard curve. […]
as §1

In assay [6] the target is T2, PTP1B (Homo sapiens, UniProt P18031).
T2 sequence (P18031 1-435): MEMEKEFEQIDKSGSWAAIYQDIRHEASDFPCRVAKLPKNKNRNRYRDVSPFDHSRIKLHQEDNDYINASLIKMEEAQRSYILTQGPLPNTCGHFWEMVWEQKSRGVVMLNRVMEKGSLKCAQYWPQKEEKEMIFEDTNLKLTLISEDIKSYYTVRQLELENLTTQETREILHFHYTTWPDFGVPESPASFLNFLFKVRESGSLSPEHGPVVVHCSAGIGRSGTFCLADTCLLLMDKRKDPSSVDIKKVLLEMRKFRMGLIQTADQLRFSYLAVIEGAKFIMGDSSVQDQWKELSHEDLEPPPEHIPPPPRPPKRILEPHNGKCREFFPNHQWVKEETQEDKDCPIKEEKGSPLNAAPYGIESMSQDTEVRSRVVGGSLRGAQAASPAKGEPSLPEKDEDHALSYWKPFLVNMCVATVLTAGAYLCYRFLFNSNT
The experiment in a line: Library screening at 10 μM. The note with it: read-out: inhibition of PTP1B.

For assay [7], the system named is TgCBM K206A. The experiment in a line: Differential scanning fluorimetry carbohydrate binding. The note with it: DSF. In general terms: DSF heats the sample and reads unfolding from a dye or from intrinsic fluorescence.
Assay [8] deals with TgCBM (Toxoplasma gondii, UniProt S8F2K7). Described as above. The method, then:
We next analyzed TgCBM using size-exclusion chromatography coupled with multiangle light scattering (SEC-MALS) to define its oligomerization state. […] To define TgCBM carbohydrate binding, we utilized differential scanning fluorimetry (DSF) ([53], [54]). In the presence of a carbohydrate, an increase in Tm is associated with increased protein stability due to protein–ligand interaction. We incubated TgCBM with the linear oligosaccharide maltohexaose and observed a robust dose-dependent stabilization of TgCBM with an Kd,app = 20 ± 4 mM (Fig. 3E).

In assay [9] the test system is TgCBM W278A. The assay is described as above. The note with it: DSF.

Structures are written as SMILES.

VHR, sequence (P51452 whole entry, species assumed): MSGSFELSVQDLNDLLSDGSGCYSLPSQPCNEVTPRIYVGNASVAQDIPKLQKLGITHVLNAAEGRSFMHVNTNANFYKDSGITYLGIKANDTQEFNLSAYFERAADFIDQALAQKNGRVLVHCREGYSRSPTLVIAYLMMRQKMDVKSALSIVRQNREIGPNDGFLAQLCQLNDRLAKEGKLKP

As to `O=C(Nc1ccc(Oc2ccccc2)cc1)C(=O)Nc1ccccc1NC(=O)C(c1ccccc1)S(=O)(=O)O` (stereo not drawn) [L319-21-M49, 2-oxo-2-((2-(2-oxo-2-((4-phenoxyphenyl)amino)acetamido)phenyl)amino)-1-phenylethanesulfonic acid], the IC50 (commonly the concentration that gives 50% inhibition) came out at 6.7 ± 0.1 µM in assay [1] (C3, read-out: IC50 phosphate release from C3 position of starch); 6.5 ± 1.4 µM in assay [1] (C6, read-out: IC50 phosphate release from C6 position of starch); 1.5 ± 0.3 µM in [2]; 5.1 ± 0.4 µM in [5]. In addition, the “specificity for TgLaforin over other phosphatases” value in [2] (pNPP assay, other phosphatases VHR, PTP1B, CIP) is on record as greater than 100 fold. The “mechanism of inhibition (Lineweaver-Burk plot)” value in [2] (pNPP substrate) is “competitive inhibitor”. The inhibition (usually the change of the read-out against control, counted positive when it falls) at 10 µM in assay [3] was greater than 90%; in assay [4] it was less than 10%; in assay [6], less than 10%.
`OC[C@H]1O[C@H](O[C@H]2[C@H](O)[C@@H](O)[C@@H](O[C@H]3[C@H](O)[C@@H](O)[C@@H](O[C@H]4[C@H](O)[C@@H](O)[C@@H](O[C@H]5[C@H](O)[C@@H](O)[C@@H](O[C@H]6[C@H](O)[C@@H](O)C(O)O[C@@H]6CO)O[C@@H]5CO)O[C@@H]4CO)O[C@@H]3CO)O[C@@H]2CO)[C@H](O)[C@@H](O)[C@@H]1O` (stereo partly drawn) [maltohexaose]: the “binding to K206A mutant” value in assay [7] is on record as “neither mutant was able to bind”. Also, binding in assay [8] was characterised by a dissociation constant (Kd) of 20000 ± 4000 µM. For the same molecule, the “binding to W278A mutant” value in [9] is on record as “neither mutant was able to bind”.
